Tested on: C3H10T1/2 cells
Assay: C3H assay: differentiation of C3H10T1/2 cells by mSHH, measurement of alkaline phosphatase
Type: cell-based, mouse
Settings: C3H10T1/2 cells stimulated with mSHH for 72 hours; alkaline phosphatase activity; read-out: IC50 Ranges

IC50	SMILES
< 10 nM	O=C(OCc1cccc([N+](=O)[O-])c1)N1CC(S(=O)(=O)N2CCC(c3c[nH]c4ncccc34)CC2)C1 [Compound 213, (3-nitrophenyl) methyl 3-[4-(1H-pyrrolo[2,3-b]pyridin-3-yl)piperidin-1-yl]sulfonylaze-tidine-1-carboxylate]

Same assay, conditions: Mus musculus, C3H 10T1/2, 72 h, read-out: IC50 Ranges

SMILES	IC50
O=C(Oc1cccnc1)N1CC(S(=O)(=O)N2CCC(c3c[nH]c4ncccc34)CC2)C1 [Compound 212, pyridin-3-yl 3-[4-(1H-pyrrolo [2,3-b]pyridin-3-yl)piperidin-1-yl]sulfonylaze-tidine-1-carboxylate]	10 to 100 nM

Same assay, conditions: Mus musculus, C3H 10T1/2; C3H10T1/2 cells stimulated with mSHH for 72 hours; alkaline phosphatase activity; read-out: IC50 Ranges

SMILES	IC50
O=C(Oc1ccccc1O)N1CC(S(=O)(=O)N2CCC(c3c[nH]c4ncccc34)CC2)C1 [Compound 183, (2-hydroxyphenyl) 3-[4-(1H-pyrrolo[2,3-b]pyridin-3-yl)piperidin-1-yl]sulfonylaze-tidine-1-carboxylate]	100 to 1000 nM
O=S(=O)(C1CN(c2nc(C(F)(F)F)ccc2C(F)(F)F)C1)N1CCC(c2c[nH]c3ncccc23)CC1 [Compound 184, 3-[1-[1-[3,6-bis(trifluoromethyl)pyridin-2-yl]azetidin-3-yl]sulfonylpiper-idin-4-yl]-1H-pyrrolo[2,3-b]pyridine]	100 to 1000 nM
Cc1ccnc(N2CC(S(=O)(=O)N3CCC(c4c[nH]c5ncccc45)CC3)C2)c1C#N [Compound 187, 4-methyl-2-[3-[4-(1H-pyrrolo[2,3-b]pyridin-3-yl)piperidin-1-yl]sulfonylaze-tidin-1-yl]pyridine-3-carbonitrile]	100 to 1000 nM
O=C(c1cccs1)N1CC(S(=O)(=O)N2CCC(c3c[nH]c4ncccc34)CC2)C1 [Compound 193, [3-[4-(1H-pyrrolo[2,3-b]pyridin-3-yl)piperidin-1-yl]sulfonylaze-tidin-1-yl]-thiophen-2-ylmethanone]	10 to 100 nM
O=C(O[C@@H]1CCOC1)N1CC(S(=O)(=O)N2CCC(c3c[nH]c4ncccc34)CC2)C1 [Compound 196, [(3R)-oxolan-3-yl]3-[4-(1H-pyrrolo[2,3-b]pyridin-3-yl)piperidin-1-yl]sulfonylaze-tidine-1-carboxylate]	100 to 1000 nM
O=C(O[C@H]1CCOC1)N1CC(S(=O)(=O)N2CCC(c3c[nH]c4ncccc34)CC2)C1 [Compound 197, [(3S)-oxolan-3-yl]3-[4-(1H-pyrrolo[2,3-b]pyridin-3-yl)piperidin-1-yl]sulfonylaze-tidine-1-carboxylate]	10 to 100 nM
O=C(OC1CCC1)N1CC(S(=O)(=O)N2CCC(c3c[nH]c4ncccc34)CC2)C1 [Compound 198, cyclobutyl 3-[4-(1H-pyrrolo[2,3-b]pyridin-3-yl)piperidin-1-yl]sulfonylaze-tidine-1-carboxylate]	10 to 100 nM
CC1(COC(=O)N2CC(S(=O)(=O)N3CCC(c4c[nH]c5ncccc45)CC3)C2)COC1 [Compound 199, (3-methyloxetan-3-yl)methyl 3-[4-(1H-pyrrolo[2,3-b]pyridin-3-yl)piperidin-1-yl]sulfonylaze-tidine-1-carboxylate]	10 to 100 nM
CC[C@@H](C)OC(=O)N1CC(S(=O)(=O)N2CCC(c3c[nH]c4ncccc34)CC2)C1 [Compound 200, [(2R)-butan-2-yl]3-[4-(1H-pyrrolo[2,3-b]pyridin-3-yl)piperidin-1-yl]sulfonylaze-tidine-1-carboxylate]	10 to 100 nM
O=C(OCC1CCC1)N1CC(S(=O)(=O)N2CCC(c3c[nH]c4ncccc34)CC2)C1 [Compound 201, cyclobutylmethyl 3-[4-(1H-pyrrolo[2,3-b]pyridin-3-yl)piperidin-1-yl]sulfonylaze-tidine-1-carboxylate]	10 to 100 nM
Cc1noc(C)c1COC(=O)N1CC(S(=O)(=O)N2CCC(c3ccncc3)CC2)C1 [Compound 202, (3,5-dimethyl-1,2-oxazol-4-yl)methyl 3-(4-pyridin-4-ylpiperidin-1-yl)sulfonylaze-tidine-1-carboxylate]	100 to 1000 nM
CCN(C(=O)N1CC(S(=O)(=O)N2CCC(c3c[nH]c4ncccc34)CC2)C1)C(C)C [Compound 206, N-ethyl-N-propan-2-yl-3-[4-(1H-pyrrolo[2,3-b]pyridin-3-yl)piperidin-1-yl]sulfonylaze-tidine-1-carboxamide]	10 to 100 nM
Cc1cc(C)cc(OC(=O)N2CC(S(=O)(=O)N3CCC(c4c[nH]c5ncccc45)CC3)C2)c1 [Compound 208, (3,5-dimethylphenyl) 3-[4-(1H-pyrrolo[2,3-b]pyridin-3-yl)piperidin-1-yl]sulfonylaze-tidine-1-carboxylate]	100 to 1000 nM
O=C(OC1CCNCC1)N1CC(S(=O)(=O)N2CCC(c3c[nH]c4ncccc34)CC2)C1 [Compound 210, piperidin-4-yl 3-[4-(1H-pyrrolo[2,3-b]pyridin-3-yl)piperidin-1-yl]sulfonylaze-tidine-1-carboxylate]	100 to 1000 nM
CC(C)(C)OC(=O)N1CCC(OC(=O)N2CC(S(=O)(=O)N3CCC(c4c[nH]c5ncccc45)CC3)C2)CC1 [Compound 211, tert-butyl 4-[3-[4-(1H-pyrrolo[2,3-b]pyridin-3-yl)piperidin-1-yl]sulfonylaze-tidine-1-carbonyl] oxypiperidine-1-carboxylate]	10 to 100 nM
COc1cccc(OC(=O)N2CC(S(=O)(=O)N3CCC(c4c[nH]c5ncccc45)CC3)C2)c1 [Compound 215, (3-methoxyphenyl) 3-[4-(1H-pyrrolo[2,3-b]pyridin-3-yl)piperidin-1-yl]sulfonylaze-tidine-1-carboxylate]	10 to 100 nM

Further lines, results first:

IC50	SMILES
10 to 100 nM	O=S(=O)(C1CN(c2ncccc2C2CC2)C1)N1CCC(c2c[nH]c3ncccc23)CC1 [Compound 181, 3-[1-[1-(3-cyclopropylpy-ridin-2-yl)azetidin-3-yl]sulfonylpiper-idin-4-yl]-1H-pyrrolo[2,3-b]pyridine]
10 to 100 nM	O=S(=O)(C1CN(c2ncccc2CO)C1)N1CCC(c2c[nH]c3ncccc23)CC1 [Compound 182, [2-[3-[4-(1H-pyrrolo[2,3-b]pyridin-3-yl)piperidin-1-yl]sulfonylaze-tidin-1-yl]pyridin-3-yl]methanol]
100 to 1000 nM	COc1ccc(C(F)(F)F)c(N2CC(S(=O)(=O)N3CCC(c4c[nH]c5ncccc45)CC3)C2)n1 [Compound 185, 3-[1-[1-[6-methoxy-3-(trifluoromethyl)pyridin-2-yl]azetidin-3-yl]sulfonylpiper-idin-4-yl]-1H-pyrrolo[2,3-b]pyridine]
100 to 1000 nM	O=S(=O)(C1CN(c2ncccc2C(F)(F)F)C1)N1CCC(c2c[nH]c3ncccc23)CC1 [Compound 186, 3-[1-[1-[3-(trifluoromethyl)pyridin-2-yl]azetidin-3-yl]sulfonylpiper-idin-4-yl]-1H-pyrrolo [2,3-b]pyridine]
10 to 100 nM	O=C(C1CCCCC1)N1CC(S(=O)(=O)N2CCC(c3c[nH]c4ncccc34)CC2)C1 [Compound 189, Cyclohexyl-[3-[[4-(1H-pyrrolo[2,3-b]pyridin-3-yl)-1-piperidyl]sulfonyl]azetidin-1-yl]methanone]
10 to 100 nM	O=C(C1CCCC1)N1CC(S(=O)(=O)N2CCC(c3c[nH]c4ncccc34)CC2)C1 [Compound 190, cyclopentyl-[3-[4-(1H-pyrrolo[2,3-b]pyridin-3-yl)piperidin-1-yl]sulfonylaze-tidin-1-yl]methanone]
100 to 1000 nM	O=C(C1CC1)N1CC(S(=O)(=O)N2CCC(c3c[nH]c4ncccc34)CC2)C1 [Compound 191, cyclopropyl-[3-[4-(1H-pyrrolo[2,3-b]pyridin-3-yl)piperidin-1-yl]sulfonylaze-tidin-1-yl]methanone]
100 to 1000 nM	O=C(c1ccccn1)N1CC(S(=O)(=O)N2CCC(c3c[nH]c4ncccc34)CC2)C1 [Compound 192, pyridin-2-yl-[3-[4-(1H-pyrrolo[2,3-b]pyridin-3-yl)piperidin-1-yl]sulfonylaze-tidin-1-yl]methanone]
100 to 1000 nM	CC(C)C(=O)N1CC(S(=O)(=O)N2CCC(c3c[nH]c4ncccc34)CC2)C1 [Compound 194, 2-methyl-1-[3-[4-(1H-pyrrolo[2,3-b]pyridin-3-yl)piperidin-1-yl]sulfonylaze-tidin-1-yl]propan-1-one]
10 to 100 nM	CC(C)CC(=O)N1CC(S(=O)(=O)N2CCC(c3c[nH]c4ncccc34)CC2)C1 [Compound 195, 3-methyl-1-[3-[4-(1H-pyrrolo[2,3-b]pyridin-3-yl)piperidin-1-yl]sulfonylaze-tidin-1-yl]butan-1-one]
1000 to 10000 nM	Cc1noc(C)c1CNC(=O)N1CC(S(=O)(=O)N2CCC(c3ccncc3)CC2)C1 [Compound 203, N-[(3,5-dimethyl-1,2-oxazol-4-yl)methyl]-3-(4-pyridin-4-ylpiperidin-1-yl)sulfonylaze-tidine-1-carboxamide]
10 to 100 nM	O=C(OCC1CC1)N1CC(S(=O)(=O)N2CCC(c3c[nH]c4ncccc34)CC2)C1 [Compound 204, cyclopropylmethyl 3-[4-(1H-pyrrolo[2,3-b]pyridin-3-yl)piperidin-1-yl]sulfonylaze-tidine-1-carboxylate]
10 to 100 nM	Cc1noc(C)c1CC(=O)N1CC(S(=O)(=O)N2CCC(c3ccncc3)CC2)C1 [Compound 205, 2-(3,5-dimethyl-1,2-oxazol-4-yl)-1-[3-(4-pyridin-4-ylpiperidin-1-yl)sulfonylaze-tidin-1-yl]ethanone]
10 to 100 nM	O=C(OCc1cccc(Oc2ccccc2)c1)N1CC(S(=O)(=O)N2CCC(c3c[nH]c4ncccc34)CC2)C1 [Compound 207, (3-phenoxyphenyl) methyl 3-[4-(1H-pyrrolo [2,3-b]pyridin-3-yl)piperidin-1-yl]sulfonylaze-tidine-1-carboxylate]
10 to 100 nM	COc1ccc(COC(=O)N2CC(S(=O)(=O)N3CCC(c4c[nH]c5ncccc45)CC3)C2)cc1F [Compound 209, (3-fluoro-4-methoxyphenyl) methyl 3-[4-(1H-pyrrolo[2,3-b]pyridin-3-yl)piperidin-1-yl]sulfonylaze-tidine-1-carboxylate]
10 to 100 nM	COc1ccc(COC(=O)N2CC(S(=O)(=O)N3CCC(c4c[nH]c5ncccc45)CC3)C2)cc1 [Compound 214, (4-methoxyphenyl) methyl 3-[4-(1H-pyrrolo[2,3-b]pyridin-3-yl)piperidin-1-yl]sulfonylaze-tidine-1-carboxylate]

Source: patent US10961238B2, “Modulators of hedgehog (Hh) signaling pathway” (E-THERAPEUTICS PLC, priority 2016, dated 2021)
